Laboratory results from US6429212B1, “Medicinal composition” (Ishihara Sangyo Kaisha Ltd., priority 1996, dated 2002).

Key:
[1] = system: angiogenesis under skin of mice; assay: Angiogenesis under skin of mice (b-FGF matrigel, amount of hemoglobin); format: in vivo, BALB/c male mice; design: key to Amount of hemoglobin, value in parentheses (Control = 100): % of control (control = 100), hemoglobin per matrigel
Description: By subcutaneously injecting a mixture having recombinant human fibroblast growth factor-basic added to matrigel, to the back of a mice, angiogenesis occurs under skin of the mice. By measuring the amount of hemoglobin in matrigel, angiogenesis can be quantified. Influences of the compounds of the present invention to angiogenesis were observed.
Matrigel (trademark; basement membrane matrix, phenol is not included, purchased from Becton Dickinson Labware) was added to Dulbecco's modified Eagle's medium (purchased from Sigma), so that the concentration was 9 mg/ml. Recombinant Human Fibroblast Growth Factor-basic (b-FGF, produced by Intergen) was added thereto, so that the concentration was 2 μg/700 μl. The mixture was subcutaneously injected to 6-week BALB/c male mice (Charles River Japan Inc.) in an amount of 700 μl per mouse. Everyday after matrigel injection, a suspension having the compound of the present invention added to 0.8% Tween 80 (purchased from Nacalai Tesque), so that the predetermined concentration could be obtained, was intraperitoneally injected to the mice. 8 days after matrigel injection, matrigel was taken out from the mice, which was then placed in 200 μl of 1% NH4OH at room temperature for 4 hours, to extract hemoglobin. The extraction and matrigel together were subjected to centrifugal separation (10000 rpm, 5 min). 100 μl of the obtained supernatant and 500 μl of Drabkin's reagent (purchased from Sigma) were mixed and left at room temperature. After left more than 15 minutes, absorbance of the supernatant at a wavelength of 540 nm was measured by using a spectrophotometer SPECTRA max 250 (produced by Molecular Devices). The amount of hemoglobin in the supernatant was obtained from the standard curve prepared by using hemoglobin standard (purchased from Sigma), and the amount of hemoglobin per matrigel obtained from a mouse was calculated.
The amount of the hemoglobin in each treatment fraction was corrected by the amount of hemoglobin wherein matrigel having no b-FGF added was injected to the mice, and 0.8% Tween 80 as a solvent alone was injected everyday.
Influences of the compounds of the present invention to angiogenesis under skin of mice were observed, in the same manner as in Test Example 8.

[2] = system: TNF-α production or secretion by human leukemia cells HL-60 (Okadaic acid stimulation); assay: Influence on TNF-α production or secretion by HL-60 cells stimulated by Okadaic acid (ELISA of supernatant); format: cell-based; settings: for amount of TNF-α in the supernatant, Okadaic acid alone = 100%: HL-60, Okadaic acid 50 nM, 16 hours (Table 8)
Description: (§1) Human leukemia cells HL-60 produce tumor necrosis factor (TNF-α) by stimulation of Okadaic acid (9,10-Deepithio-9,10-didehydroacanthifolicin) or 12O-tetradecanoyl phorbol-13-acetate (TPA). Influences of the compounds of the present invention to production or secretion of TNF-α by them were observed.
Human leukemia cells (HL-60) were cultured by using a RPMI 1640 culture medium (including 5% fetal bovine serum), in a carbonic acid gas incubator (5% CO2, humidified, 37° C.). Then, the cells were pre-cultured in a RPMI 1640 culture medium (including 10% fetal bovine serum). Okadaic acid was added thereto, so that the final concentration was 50 nM based on the HL-60 cells (5×10^5 cells/ml) in an exponentially growing stage. Then, the compound of the present invention was added thereto so that the predetermined concentration could be obtained, to prepare a cell suspension, which was then cultured in a carbonic acid gas incubator (5% CO2, humidified, 37° C.). In this culture, a multiplate having 24 holes (produced by Corning) was used, and the cell suspension was injected in an amount of 0.5 ml per hole, to culture the cells.
16 hours after the culture started, the cells were removed by centrifugation (1000-2000 rpm×10 min), and the amount of TNF-α in the supernatant was measured in accordance with the method of Amersham, by using human TNF-α ELISA system (produced by Amersham).
The values in the Table are values obtained by supposing the amount of TNF-αin the supernatant of the culture medium when treated only with Okadaic acid having a final concentration of 50 nM, 100%.
Influences of the compounds of the present invention to production or secretion of TNF-α by Okadaic acid stimulation were observed, in the same manner as in Test Example 1.

[3] = system: TNF-α production or secretion by human leukemia cells HL-60 (TPA stimulation); assay: Influence on TNF-α production or secretion by HL-60 cells stimulated by TPA (ELISA of supernatant); format: cell-based; settings: for amount of TNF-α in the supernatant, TPA alone = 100% / Amount of TNF (%), TPA alone = 100%: HL-60, TPA 10 nM; for amount of TNF-α in the supernatant, TPA alone = 100%: 16 hours (Table 9); for amount of TNF-α, TPA alone = 100%: HL-60, TPA stimulation (Table 11); for Amount of TNF (%), TPA alone = 100%: 16 hours (Test Example 3)
Description: as §1
The same operation was carried out as in Test Example 1, except that TPA (produced by Sigma) having a final concentration of 10 nM was used, instead of Okadaic acid having a final concentration of 50 nM.
The values in the Table are values obtained by supposing the amount of TNF-α in the supernatant of the culture medium when treated only with TPA having a final concentration of 10 nM, 100%.
Human leukemia cells (HL-60) produce tumor necrosis factor (TNF-α) by stimulation of 12O-tetradecanoyl phorbol-13-acetate (TPA). The influences of the compounds of the present invention to production of TNF-αby it were observed.
Human leukemia cells (HL-60) were cultured by using a RPMI 1640 culture medium (including 5% fetal bovine serum), in a carbonic acid gas incubator (5% CO2, humidified, 37° C.). Then, the cells were pre-cultured in a RPMI 1640 culture medium (including 10% fetal bovine serum). TPA was added thereto, so that the final concentration was 10 nM based on the HL-60 cells (5×10^5 cells/ml) in an exponentially growing stage. Then, the compound of the present invention was added thereto so that the predetermined concentration could be obtained, to prepare a cell suspension, which was then cultured in a carbonic gas incubator (5% CO2, humidified, 37° C.). In this culture, a multiplate having 24 holes (produced by Corning) was used, and the cell suspension was injected in an amount of 0.5 ml per hole, to culture the cells.
16 hours after the culture started, the cells were removed by centrifugation(1000-2000 rpm×10 min), and the amount of TNF-α in the supernatant was measured in accordance with the method of Amersham, by using human TNF-α ELISA system (produced by Amersham).
The values are obtained by supposing the amount of TNF-α when treated only with TPA having a final concentration of 10 nM, 100%.
The influences of the compounds of the present invention to production or secretion of TNF-α by TPA stimulation were observed, in the same manner as in Test Example 2.

[4] = compound 1 μM, HL-60, Okadaic acid stimulation (Table 14)
[5] = compound 3 μM, HL-60, Okadaic acid stimulation (Table 14)
[6] = compound 10 μM, HL-60, Okadaic acid stimulation (Table 14)
[7] = compound 30 μM, HL-60, Okadaic acid stimulation (Table 14)
[8] = compound 100 μM, HL-60, Okadaic acid stimulation (Table 14)

C[C@H](c1ccccc1)N1C(=O)c2c(F)c(F)c(F)c(F)c2C1=O [Compound 18, (R)-2-(1-phenylethyl)-4,5,6,7-tetrafluoro-1H-isoindole-1,3-dione]
Amount of hemoglobin, value in parentheses (Control = 100) ([1]; 5 mg/kg, experiment (b) (Table 15)): 78
Amount of hemoglobin ([1]; 5 mg/kg, experiment (b), Control 83.3 (Table 15)): 65.1 μg/gel
amount of TNF-α in the supernatant, Okadaic acid alone = 100% ([2]; compound 1 nM): 97%
amount of TNF-α in the supernatant, Okadaic acid alone = 100% ([2]; compound 10 nM): 55%
amount of TNF-α in the supernatant, Okadaic acid alone = 100% ([2]; compound 100 nM): 8%
amount of TNF-α in the supernatant, Okadaic acid alone = 100% ([2]; compound 0.3 μM): 2%
amount of TNF-α in the supernatant, TPA alone = 100% ([3]; compound 10 nM): 100%
amount of TNF-α in the supernatant, TPA alone = 100% ([3]; compound 100 nM): 101%
amount of TNF-α in the supernatant, TPA alone = 100% ([3]; compound 0.3 μM): 97%

CC(C)c1cccc(C(C)C)c1N1C(=O)c2ccccc2C1=S [Compound 174, N-(2,6-diisopropylphenyl)thiophthalimide]
Amount of hemoglobin, value in parentheses (dose 0 = 100) ([1]; 100 mg/kg intraperitoneally everyday, 8 days after matrigel injection (Table 12)): 54
Amount of hemoglobin ([1]; 100 mg/kg intraperitoneally everyday, 8 days after matrigel injection, dose 0 = 307.3 (Table 12)): 164.8 μg/gel
amount of TNF-α, Okadaic acid alone = 100% ([2]; compound 1 μM, HL-60, Okadaic acid stimulation (Table 10)): 96%
amount of TNF-α, Okadaic acid alone = 100% ([2]; compound 10 μM, HL-60, Okadaic acid stimulation (Table 10)): 15%
amount of TNF-α, Okadaic acid alone = 100% ([2]; compound 100 μM, HL-60, Okadaic acid stimulation (Table 10)): 0%
amount of TNF-α, TPA alone = 100% ([3]; compound 1 μM): 332%
amount of TNF-α, TPA alone = 100% ([3]; compound 10 μM): 682%
amount of TNF-α, TPA alone = 100% ([3]; compound 100 μM): 1326%

CC(C)c1cccc(C(C)C)c1N1C(=O)c2c(F)c(F)c(F)c(F)c2C1=O [Compound 203, N-(2,6-diisopropylphenyl)-4,5,6,7-tetra-fluoro-phthalimide]
Amount of hemoglobin, value in parentheses (Control = 100) ([1]; 1 mg/kg, experiment (a) (Table 15)): 69
Amount of hemoglobin ([1]; 1 mg/kg, experiment (a), Control 307.3 (Table 15)): 211.4 μg/gel
amount of TNF-α, Okadaic acid alone = 100% ([2]; compound 1 nM, HL-60, Okadaic acid stimulation (Table 14)): 100%
amount of TNF-α, Okadaic acid alone = 100% ([2]; compound 3 nM, HL-60, Okadaic acid stimulation (Table 14)): 93%
amount of TNF-α, Okadaic acid alone = 100% ([2]; compound 10 nM, HL-60, Okadaic acid stimulation (Table 14)): 75%
amount of TNF-α, Okadaic acid alone = 100% ([2]; compound 30 nM, HL-60, Okadaic acid stimulation (Table 14)): 42%
amount of TNF-α, Okadaic acid alone = 100% ([2]; compound 100 nM, HL-60, Okadaic acid stimulation (Table 14)): 0%

O=C1c2ccccc2C(=O)N1c1ccccc1 [Compound 201, N-phenylphthalimide]
amount of TNF-α, Okadaic acid alone = 100% [2, 4]: 100%
amount of TNF-α, Okadaic acid alone = 100% [2, 5]: 100%
amount of TNF-α, Okadaic acid alone = 100% [2, 6]: 82%
amount of TNF-α, Okadaic acid alone = 100% [2, 7]: 60%
amount of TNF-α, Okadaic acid alone = 100% [2, 8]: 41%

C[C@@H](c1cccc2ccccc12)N1C(=O)c2c(F)c(F)c(F)c(F)c2C1=O [Compound 49, (S)-2-(1-naphthylethyl)-4,5,6,7-tetrafluoro-1H-isoindole-1,3-dione]
amount of TNF-α in the supernatant, Okadaic acid alone = 100% ([2]; compound 1 nM): 100%
amount of TNF-α in the supernatant, Okadaic acid alone = 100% ([2]; compound 10 nM): 102%
amount of TNF-α in the supernatant, Okadaic acid alone = 100% ([2]; compound 100 nM): 100%
amount of TNF-α in the supernatant, Okadaic acid alone = 100% ([2]; compound 0.3 μM): 101%
amount of TNF-α in the supernatant, TPA alone = 100% ([3]; compound 10 nM): 100%
amount of TNF-α in the supernatant, TPA alone = 100% ([3]; compound 100 nM): 99%
amount of TNF-α in the supernatant, TPA alone = 100% ([3]; compound 0.3 μM): 101%

CC(C)c1cccc(C(C)C)c1N1C(=O)Cc2ccccc2C1=O [Compound A-3, N-(2.6-diisopropylphenyl)-homophthalimide]
Amount of TNF (%), TPA alone = 100% ([3]; compound 10 μM): 258%

CC(C)c1cccc(C(C)C)c1N1C(=O)c2cc3ccccc3cc2C1=O [Compound B-3, N-(2,6-diisopropylphenyl) 2,3-naphthalimide]
Amount of TNF (%), TPA alone = 100% ([3]; compound 10 μM): 134%

CC(C)c1cccc(C(C)C)c1N1C(=O)c2ccccc2C1=O [Compound 202, N-(2.6-diisopropylphenyl)-phthalimide]
Amount of hemoglobin, value in parentheses (Control = 100) ([1]; 10 mg/kg, experiment (a) (Table 15)): 77
Amount of hemoglobin ([1]; 10 mg/kg, experiment (a), Control 307.3 (Table 15)): 235.4 μg/gel
Amount of hemoglobin, value in parentheses (Control = 100) ([1]; 100 mg/kg, experiment (a) (Table 15)): 50
Amount of hemoglobin ([1]; 100 mg/kg, experiment (a), Control 307.3 (Table 15)): 152.5 μg/gel
amount of TNF-α, Okadaic acid alone = 100% [2, 4]: 100%
amount of TNF-α, Okadaic acid alone = 100% [2, 5]: 80%
amount of TNF-α, Okadaic acid alone = 100% [2, 6]: 43%
amount of TNF-α, Okadaic acid alone = 100% [2, 7]: 20%
amount of TNF-α, Okadaic acid alone = 100% [2, 8]: 9%

C[C@@H](C1CCCCC1)N1C(=O)c2c(F)c(F)c(F)c(F)c2C1=O [Compound 68, (S)-2-(1-cyclohexylethyl)-4,5,6,7-tetrafluoro-1H-isoindole-1,3-dione]
amount of TNF-α in the supernatant, Okadaic acid alone = 100% ([2]; compound 1 nM): 102%
amount of TNF-α in the supernatant, Okadaic acid alone = 100% ([2]; compound 10 nM): 101%
amount of TNF-α in the supernatant, Okadaic acid alone = 100% ([2]; compound 100 nM): 96%
amount of TNF-α in the supernatant, Okadaic acid alone = 100% ([2]; compound 0.3 μM): 65%
amount of TNF-α in the supernatant, TPA alone = 100% ([3]; compound 10 nM): 103%
amount of TNF-α in the supernatant, TPA alone = 100% ([3]; compound 100 nM): 115%
amount of TNF-α in the supernatant, TPA alone = 100% ([3]; compound 0.3 μM): 124%
